Entries after “also recorded” stand apart in the source; their conditions may differ.
Test: Pulmonary responses and safety in human subjects with mild, intermittent asthma (single-blind and double-blind parts)
Assay type: in vivo
Description: Methodology: The study consisted of 2 parts, a Single-Blind Part and a Double-Blind Part. The dose escalating, Single-Blind Part enrolled subjects with mild, intermittent asthma and consisted of 3 sequentially enrolled dosing cohorts with 8 subjects per cohort, such that Dosing Cohorts 1, 2 and 3 received binodenoson target doses of 0.5 μg/kg, 1.0 μg/kg and 1.5 μg/kg, respectively. All 8 subjects in a dosing cohort must have completed dosing at the assigned dose and a medical review of each cohort must have been acceptable before enrollment in the next cohort began. The Double-Blind Part was initiated only if the medical review of all safety data from the Single-Blind Part was acceptable. In the Double Blind Part, subjects with mild, intermittent asthma were randomly assigned in a 2:1 ratio to receive either binodenoson 1.5 μg/kg (n=40 planned) or placebo control (n=20 planned).
Both study parts were comprised of Screening, Treatment and Follow-Up Visits. The Screening Visit occurred 7 to 14 days before the Treatment Visit and consisted of a physical examination, medical history and application of inclusion and exclusion criteria. Subjects were instructed to measure peak expiratory flow (PEF) and asthma symptoms during a period of at least 7 days prior to the Treatment Visit. Subjects were to continue to meet all Screening eligibility criteria at the Treatment Visit and forced expiratory volume in 1 second (FEV1) was to remain within 80% of predicted for subjects to be eligible for dosing. All subjects enrolled in the Single-Blind Part and subjects randomized to receive binodenoson in the Double-Blind Part received 3 intravenous (IV) injections during the Treatment Visit: (1) placebo; (2) a low, challenge binodenoson dose to detect potential hypersensitivity reactions; and (3) an assigned binodenoson test dose. Subjects randomized to receive placebo in the Double Blind Part received 3 placebo injections. The Follow-Up Visit occurred 2 to 4 days following the Treatment Visit.
Eligible subjects were males or non-pregnant, nonlactating females ≧18 years of age weighing <350 pounds with a medical history of mild, intermittent asthma (as defined in the “Guidelines for the Diagnosis and Management of Asthma” prepared by the National Institutes of Health [NIH]) within 6 months of Screening.
Subjects were not eligible for the study if they had resting sitting systolic blood pressure (SBP)<100 or >140 mmHg, diastolic blood pressure (DBP)<60 or >90 mmHg, pulse rate >95 beats per minute (bpm), or a lower limit FEV1 at rest of <80% of the predicted value at Screening.
Dose and Mode of Administration: A stock solution of binodenoson (25 μg/mL) was administered as a bolus injection over 30 seconds (0.1 μg/kg=0.004 mL/kg of stock solution, 0.5 μg/kg=0.02 mL/kg of stock solution, 1.0 μg/kg=0.04 mL/kg of stock solution and 1.5 μg/kg=0.06 mL/kg of stock solution).
Duration of Treatment: Each subject received three 30-second bolus IV injections separated by ≧90 minutes in both the Single Blind and Double-Blind Parts of the study.
Criteria for Evaluation: The primary safety endpoint was clinically significant bronchoconstriction, defined as a ≧20% decrease in FEV1 from the predrug baseline following binodenoson administration. Other safety assessments included need for rescue medication, regular measurements of pulmonary function (FEV1 [% predicted], forced vital capacity [FVC] and forced expiratory flow during the middle half of the FVC [FEF25%-75%]), vital signs, pulse oximetry, physical examination findings, electrocardiogram (ECG) results, clinical laboratory results and adverse events.
Statistical Methods: All data collected in the study were summarized by treatment (placebo; 0.1 μg/kg binodenoson challenge; or 0.5, 1.0, or 1.5 μg/kg binodenoson) and study Part (Single-Blind or Double-Blind with univariate summaries). Continuous variables were summarized with descriptive statistics (n, mean, median, standard deviation [SD] and minimum and maximum). […]

[1] = double-blind, Binodenoson Group, second injection 0.1 μg/kg iv bolus, 15 minutes
[2] = double-blind, Binodenoson Group, second injection 0.1 μg/kg iv bolus, 90 minutes
[3] = double-blind, binodenoson 1.5 μg/kg group
[4] = double-blind, third injection 1.5 μg/kg
[5] = double-blind, third injection 1.5 μg/kg iv bolus, 5 min
[6] = double-blind, third injection 1.5 μg/kg iv bolus, 15 min
[7] = double-blind, third injection 1.5 μg/kg iv bolus, 45 min
[8] = double-blind, third injection 1.5 μg/kg iv bolus, 90 min
[9] = single-blind, Cohort 1, second injection 0.1 μg/kg iv bolus, 15 minutes
[10] = single-blind, Cohort 1, second injection 0.1 μg/kg iv bolus, 90 minutes
[11] = single-blind, Cohort 2, second injection 0.1 μg/kg iv bolus, 15 minutes
[12] = single-blind, Cohort 2, second injection 0.1 μg/kg iv bolus, 90 minutes
[13] = single-blind, Cohort 3, second injection 0.1 μg/kg iv bolus, 15 minutes
[14] = single-blind, Cohort 3, second injection 0.1 μg/kg iv bolus, 90 minutes

Nc1nc(N/N=C/C2CCCCC2)nc2c1ncn2[C@@H]1O[C@H](CO)[C@@H](O)[C@H]1O (stereo in doubt) [Binodenoson, 2-{2-[(Cyclohexyl)methylene]hydrazino}adenosine]
changes from baseline in mean FEV1, FEV1 (% predicted), FEF25%-75%, FVC (after any injection, single- or double-blind part): No clinically significant changes from baseline
safety and tolerability (doses up to 1.5 μg/kg): safe and well tolerated
FEF25%-75% Mean % Change from Baseline (SD) [1]: 1.531 (5.261) %
FEF25%-75% Mean (SD) [1]: 2.946 (0.973)
FEV1 (% predicted) Mean % Change from Baseline (SD) [1]: 0.3 (2.4) %
FEV1 (% predicted) Mean (SD) [1]: 88.3 (6.9) % predicted
FEV1 (L) Mean % Change from Baseline (SD) [1]: 0.421 (2.525) %
FEV1 (L) Mean (SD) [1]: 3.170 (0.590) L
FVC Mean % Change from Baseline (SD) [1]: 0.055 (2.683) %
FVC Mean (SD) [1]: 4.051 (0.824)
FEF25%-75% Mean % Change from Baseline (SD) [2]: 1.181 (6.739) %
FEF25%-75% Mean (SD) [2]: 2.965 (1.071)
FEV1 (% predicted) Mean % Change from Baseline (SD) [2]: −0.1 (2.9) %
FEV1 (% predicted) Mean (SD) [2]: 87.9 (7.7) % predicted
FEV1 (L) Mean % Change from Baseline (SD) [2]: −0.042 (3.348) %
FEV1 (L) Mean (SD) [2]: 3.152 (0.574) L
FVC Mean % Change from Baseline (SD) [2]: −0.457 (3.163) %
FVC Mean (SD) [2]: 4.021 (0.778)
abdominal discomfort, treatment emergent AE [3]: 5%
dizziness, treatment emergent AE [3]: 18%
flushing, treatment emergent AE [3]: 15%
headache, treatment emergent AE [3]: 5%
nausea, treatment emergent AE [3]: 8%
sinus tachycardia, treatment emergent AE [3]: 8%
tachycardia, treatment emergent AE [3]: 31%
changes from baseline in mean FEV1, FEV1 (% predicted), FEF25%-75%, FVC (double-blind, binodenoson 1.5 μg/kg group, after first or second injections): no clinically significant changes from baseline
subjects who experienced AEs (double-blind, binodenoson 1.5 μg/kg subjects (placebo 19%)): 69%
changes from baseline in mean FEV1, FEV1 (% predicted), FEF25%-75%, FVC [4]: No clinically significant changes from baseline
treatment differences in pulmonary function versus placebo [4]: no statistically significant treatment differences
FEF25%-75% Mean % Change from Baseline (SD) [5]: −0.877 (6.999) %
FEF25%-75% Mean (SD) [5]: 2.913 (0.981)
FEV1 (% predicted) Mean % Change from Baseline (SD) [5]: 0.1 (3.3) %
FEV1 (% predicted) Mean (SD) [5]: 88.0 (8.7) % predicted
FEV1 Mean % Change from Baseline (SD) [5]: 0.028 (3.849) %
FEV1 Mean (SD) [5]: 3.153 (0.589)
FVC Mean % Change from Baseline (SD) [5]: 0.186 (4.299) %
FVC Mean (SD) [5]: 4.022 (0.746)
FEF25%-75% Mean % Change from Baseline (SD) [6]: −0.477 (6.555) %
FEF25%-75% Mean (SD) [6]: 2.930 (1.012)
FEV1 (% predicted) Mean % Change from Baseline (SD) [6]: −0.3 (2.6) %
FEV1 (% predicted) Mean (SD) [6]: 87.6 (8.5) % predicted
FEV1 Mean % Change from Baseline (SD) [6]: −0.405 (3.079) %
FEV1 Mean (SD) [6]: 3.137 (0.574)
FVC Mean % Change from Baseline (SD) [6]: −0.309 (3.272) %
FVC Mean (SD) [6]: 4.004 (0.755)
FEF25%-75% Mean % Change from Baseline (SD) [7]: 0.388 (7.548) %
FEF25%-75% Mean (SD) [7]: 2.940 (0.959)
FEV1 (% predicted) Mean % Change from Baseline (SD) [7]: 0.1 (3.3) %
FEV1 (% predicted) Mean (SD) [7]: 88.0 (8.3) % predicted
FEV1 Mean % Change from Baseline (SD) [7]: 0.056 (3.888) %
FEV1 Mean (SD) [7]: 3.156 (0.598)
FVC Mean % Change from Baseline (SD) [7]: −0.133 (4.369) %
FVC Mean (SD) [7]: 4.015 (0.780)
FEF25%-75% Mean % Change from Baseline (SD) [8]: −0.335 (8.198) %
FEF25%-75% Mean (SD) [8]: 2.923 (0.963)
FEV1 (% predicted) Mean % Change from Baseline (SD) [8]: 1.1 (3.2) %
FEV1 (% predicted) Mean (SD) [8]: 89.0 (7.7) % predicted
FEV1 Mean % Change from Baseline (SD) [8]: 1.228 (3.835) %
FEV1 Mean (SD) [8]: 3.191 (0.588)
FVC Mean % Change from Baseline (SD) [8]: 1.755 (3.720) %
FVC Mean (SD) [8]: 4.093 (0.800)
changes in SBP, pulse rate and DBP (double-blind, magnitude greater in binodenoson than placebo group): Transient increases in SBP and pulse rate and decreases in DBP
need for rescue medication (single- and double-blind parts): No subject required rescue medication
clinically significant bronchoconstriction (≧20% decrease in FEV1 from predrug baseline) (single- and double-blind parts, doses up to 1.5 μg/kg): No bronchoconstriction events; also recorded: did not induce bronchoconstriction
FEF25%-75% Mean % Change from Baseline (SD) [9]: 0.526 (7.433) %
FEF25%-75% Mean (SD) [9]: 2.994 (0.911)
FEV1 (% predicted) Mean % Change from Baseline (SD) [9]: 0.1 (3.6) %
FEV1 (% predicted) Mean (SD) [9]: 90.5 (12.1) % predicted
FEV1 (L) Mean % Change from Baseline (SD) [9]: 0.136 (3.922) %
FEV1 (L) Mean (SD) [9]: 3.908 (0.824) L
FVC Mean % Change from Baseline (SD) [9]: −0.003 (2.480) %
FVC Mean (SD) [9]: 5.516 (1.130)
FEF25%-75% Mean % Change from Baseline (SD) [10]: 9.136 (9.019) %
FEF25%-75% Mean (SD) [10]: 3.241 (0.946)
FEV1 (% predicted) Mean % Change from Baseline (SD) [10]: 4.5 (3.5) %
FEV1 (% predicted) Mean (SD) [10]: 94.9 (12.3) % predicted
FEV1 (L) Mean % Change from Baseline (SD) [10]: 5.043 (4.097) %
FEV1 (L) Mean (SD) [10]: 4.101 (0.867) L
FVC Mean % Change from Baseline (SD) [10]: 2.379 (3.221) %
FVC Mean (SD) [10]: 5.654 (1.188)
FEF25%-75% Mean % Change from Baseline (SD) [11]: 0.724 (4.318) %
FEF25%-75% Mean (SD) [11]: 3.665 (1.555)
FEV1 (% predicted) Mean % Change from Baseline (SD) [11]: 1.4 (2.5) %
FEV1 (% predicted) Mean (SD) [11]: 94.8 (13.2) % predicted
FEV1 (L) Mean % Change from Baseline (SD) [11]: 1.292 (2.662) %
FEV1 (L) Mean (SD) [11]: 3.944 (0.895) L
FVC Mean % Change from Baseline (SD) [11]: 2.129 (3.295) %
FVC Mean (SD) [11]: 5.120 (1.195)
FEF25%-75% Mean % Change from Baseline (SD) [12]: −2.574 (12.173) %
FEF25%-75% Mean (SD) [12]: 3.471 (1.285)
FEV1 (% predicted) Mean % Change from Baseline (SD) [12]: 0.3 (4.2) %
FEV1 (% predicted) Mean (SD) [12]: 93.6 (13.0) % predicted
FEV1 (L) Mean % Change from Baseline (SD) [12]: 0.165 (4.367) %
FEV1 (L) Mean (SD) [12]: 3.895 (0.854) L
FVC Mean % Change from Baseline (SD) [12]: 1.624 (3.599) %
FVC Mean (SD) [12]: 5.100 (1.219)
FEF25%-75% Mean % Change from Baseline (SD) [13]: 0.635 (6.670) %
FEF25%-75% Mean (SD) [13]: 2.758 (0.695)
FEV1 (% predicted) Mean % Change from Baseline (SD) [13]: 0.1 (2.7) %
FEV1 (% predicted) Mean (SD) [13]: 90.5 (8.5) % predicted
FEV1 (L) Mean % Change from Baseline (SD) [13]: 0.145 (2.786) %
FEV1 (L) Mean (SD) [13]: 3.325 (0.690) L
FVC Mean % Change from Baseline (SD) [13]: 0.480 (2.084) %
FVC Mean (SD) [13]: 4.364 (0.876)
FEF25%-75% Mean % Change from Baseline (SD) [14]: 4.324 (8.478) %
FEF25%-75% Mean (SD) [14]: 2.836 (0.636)
FEV1 (% predicted) Mean % Change from Baseline (SD) [14]: 0.9 (2.0) %
FEV1 (% predicted) Mean (SD) [14]: 91.3 (7.3) % predicted

Source: patent US20110002843A1, “METHOD OF DETECTING MYOCARDIAL DYSFUNCTION IN PATIENTS HAVING A HISTORY OF ASTHMA OR BRONCHOSPASM” (priority 2005, published 2011)
